Data set [1] in a line: Cardiopulmonary exercise testing in a patient with NYHA Class III CHF treated with clenbuterol. It counts as in vivo, human. The settings on record: 40 mcg b.i.d., six weeks. As for the experimental part: A patient with New York Heart Association Class III CHF with an ICD, currently taking a heart failure medical regimen, including carvedilol (a non-selective beta-blocking agent), lisinopril (an ACE inhibitor), digoxin and spiranolactone, has shortness of breath on moderate exertion and a peak oxygen consumption of 14 ml/kg/min during cardiopulmonary exercising testing.

The conditions of data set [2]: CHF patients, 8 mg b.i.d., three weeks; cited from earlier work.

Counter-ions that a name gives are not always drawn.

Regarding `CC(C)(C)NCC(O)c1cc(Cl)c(N)c(Cl)c1` (centres unmarked) [clenbuterol hydrochloride, Clenbuterol hydrochloride], in data set [1], the tolerability of dose result is listed as “well-tolerated”. Regarding `CC(C)(C)NCC(O)c1ccc(O)c(CO)c1` (centres unmarked) [salbutamol], the “quadriceps bulk, muscle strength or fatigue, exercise capacity, symptom assessment scores” value in data set [2] is “no change”.
